In ChEMBL document CHEMBL1123664, “Preparation and antitumor activity of new mitomycin A analogues” (J Med Chem, 1987):
Where “and” joins values, the source holds several entries; their conditions need not be identical. Identical values can stand only once.

Legend:
[1] = system: P388; assay: Antitumor activity against intraperitoneally implanted P388 leukemia cells in mice expressed as ratio of median survival time for treated group to that of control group at an optimal dose of 12.8 mg/kg; format: functional, Mus musculus; conditions: route intraperitoneal
[2] = system: P388; assay: Antitumor activity against intraperitoneally implanted P388 leukemia cells in mice at an optimal dose of 12.8 mg/kg expressed as […] effective dose; format: functional; conditions: Mus musculus, P388, ip, route intraperitoneal, read-out: MED
[3] = Partition coefficient (logP); format: physicochemical; conditions: octanol/water
[4] = system: P388; assay: Antitumor activity against intraperitoneally implanted P388 leukemia cells in mice expressed as ratio of median survival time for treated group to that of control group at an optimal dose of 3.2 mg/kg; format: functional, Mus musculus; conditions: route intraperitoneal
[5] = system: P388; assay: Antitumor activity against intraperitoneally implanted P388 leukemia cells in mice expressed as ratio of median survival time for treated group to that of control group at an optimal dose of 1.6 mg/kg; format: functional, Mus musculus; conditions: route intraperitoneal
[6] = system: P388; assay: Antitumor activity against intraperitoneally implanted P388 leukemia cells in mice at an optimal dose of 1.6 mg/kg expressed as […] effective dose; format: functional; conditions: Mus musculus, P388, ip, route intraperitoneal, read-out: MED
[7] = system: B16; assay: Antitumor activity against subcutaneously B16 melanoma cells in mice expressed as ratio of median survival time for treated group to that of control group at an optimal dose of 1.6 mg/kg; format: functional, Mus musculus; conditions: route subcutaneous
[8] = system: B16; assay: Antitumor activity against subcutaneously B16 melanoma cells in mice at an optimal dose of 1.6 mg/kg expressed as […] effective dose; format: functional; conditions: Mus musculus, B16, sc, route subcutaneous, read-out: MED
[9] = system: B16; assay: Antitumor activity against subcutaneously B16 melanoma cells in mice expressed as ratio of median survival time for treated group to that of control group at an optimal dose of 1.2 mg/kg; format: functional, Mus musculus; conditions: route subcutaneous
[10] = system: B16; assay: Antitumor activity against subcutaneously B16 melanoma cells in mice at an optimal dose of 1.2 mg/kg expressed as […] effective dose; format: functional; conditions: Mus musculus, B16, sc, route subcutaneous, read-out: MED
[11] = system: P388; assay: Antitumor activity against intraperitoneally implanted P388 leukemia cells in mice expressed as ratio of median survival time for treated group to that of control group at an optimal dose of 0.4 mg/kg; format: functional, Mus musculus; conditions: route intraperitoneal
[12] = system: P388; assay: Antitumor activity against intraperitoneally implanted P388 leukemia cells in mice at an optimal dose of 3.2 mg/kg expressed as […] effective dose; format: functional; conditions: Mus musculus, P388, ip, route intraperitoneal, read-out: MED
[13] = system: B16; assay: Antitumor activity against subcutaneously B16 melanoma cells in mice expressed as ratio of median survival time for treated group to that of control group at an optimal dose of 0.8 mg/kg; format: functional, Mus musculus; conditions: route subcutaneous
[14] = system: P388; assay: Antitumor activity against intraperitoneally implanted P388 leukemia cells in mice expressed as ratio of median survival time for treated group to that of control group at an optimal dose of 0.8 mg/kg; format: functional, Mus musculus; conditions: route intraperitoneal
[15] = system: P388; assay: Antitumor activity against intraperitoneally implanted P388 leukemia cells in mice at an optimal dose of 0.8 mg/kg expressed as […] effective dose; format: functional; conditions: Mus musculus, P388, ip, route intraperitoneal, read-out: MED
[16] = system: B16; assay: Antitumor activity against subcutaneously B16 melanoma cells in mice expressed as ratio of median survival time for treated group to that of control group at an optimal dose of 0.4 mg/kg; format: functional, Mus musculus; conditions: route subcutaneous
[17] = system: B16; assay: (§1) Antitumor activity against subcutaneously B16 melanoma cells in mice expressed as ratio of median survival time for treated group to that of control group at an optimal dose of 0.6 mg/kg; format: functional, Mus musculus; conditions: route subcutaneous
[18] = system: B16; assay: as §1; format: functional, Mus musculus; conditions: route subcutaneous; remark: listed apart in the source
[19] = system: B16; assay: (§2) Antitumor activity against subcutaneously B16 melanoma cells in mice expressed as ratio of median survival time for treated group to that of control group at an optimal dose of 1-3 mg/kg; format: functional, Mus musculus
[20] = system: B16; assay: Antitumor activity against subcutaneously B16 melanoma cells in mice at an optimal dose of 0.8 mg/kg expressed as […] effective dose; format: functional, Mus musculus; conditions: route subcutaneous; for minimal effective dose at 0.8 mg/kg: Mus musculus, B16, sc, read-out: MED
[21] = system: B16; assay: Antitumor activity against subcutaneously B16 melanoma cells in mice at an optimal dose of 0.6 mg/kg expressed as […] effective dose; format: functional, Mus musculus; conditions: route subcutaneous
[22] = system: P388; assay: Antitumor activity against intraperitoneally implanted P388 leukemia cells in mice at an optimal dose of 0.8 mg/kg gexpressed as […] effective dose; format: functional; conditions: Mus musculus, P388, ip, route intraperitoneal, read-out: MED
[23] = system: B16; assay: Antitumor activity against subcutaneously B16 melanoma cells in mice expressed as ratio of median survival time for treated group to that of control group at an optimal dose of 0.2 mg/kg; format: functional, Mus musculus; conditions: route subcutaneous
[24] = system: B16; assay: Antitumor activity against subcutaneously B16 melanoma cells in mice at an optimal dose of 0.2 mg/kg expressed as […] effective dose; format: functional; conditions: Mus musculus, B16, sc, route subcutaneous, read-out: MED
[25] = system: B16; assay: Antitumor activity against subcutaneously B16 melanoma cells in mice at an optimal dose of 0.4 mg/kg expressed as […] effective dose; format: functional; conditions: Mus musculus, B16, sc, route subcutaneous, read-out: MED
[26] = system: B16; assay: as §2; format: functional, Mus musculus; remark: listed apart in the source
[27] = system: B16; assay: Antitumor activity against subcutaneously B16 melanoma cells in mice expressed as ratio of median survival time for treated group to that of control group at an optimal dose of 0.3 mg/kg; format: functional, Mus musculus; conditions: route subcutaneous
[28] = system: B16; assay: Antitumor activity against subcutaneously B16 melanoma cells in mice at an optimal dose of 0.3 mg/kg expressed as […] effective dose; format: functional; conditions: Mus musculus, B16, sc, route subcutaneous, read-out: MED

## CO[C@@]12C(COC(N)=O)C3=C(C(=O)C(C)=C(OCC(O)CO)C3=O)N1CC1NC12 (some centres undefined)
[1]
  T/C: 225% and 205%
[2]
  minimal effective dose at 12.8 mg/kg: 0.2 mg/kg

## CO[C@@]12C(COC(N)=O)C3=C(C(=O)C(C)=C(OC(C)C)C3=O)N1CC1NC12 (some centres undefined)
[3]
  logP: 1.26
[4]
  T/C: 174%

## C=CCOC1=C(C)C(=O)C2=C(C1=O)C(COC(N)=O)[C@@]1(OC)C3NC3CN21 (some centres undefined)
[3]
  logP: 0.87
[5]
  T/C: 156%
[6]
  minimal effective dose at 1.6 mg/kg: 0.1 mg/kg

## COC(COC1=C(C)C(=O)C2=C(C1=O)C(COC(N)=O)[C@@]1(OC)C3NC3CN21)OC (some centres undefined)
[7]
  T/C: 216%
[8]
  minimal effective dose at 1.6 mg/kg: 0.4 mg/kg
[5]
  T/C: 269%
[6]
  minimal effective dose at 1.6 mg/kg: < 0.025 mg/kg

## CO[C@@]12C(COC(N)=O)C3=C(C(=O)C(C)=C(OCCC#N)C3=O)N1CC1NC12 (some centres undefined)
[9]
  T/C: 141%
[10]
  minimal effective dose at 1.2 mg/kg: 0.8 mg/kg
[11]
  T/C: 200%

## CO[C@@]12C(COC(N)=O)C3=C(C(=O)C(C)=C(OCCO)C3=O)N1CC1C2N1C (some centres undefined)
[3]
  logP: 0.67
[4]
  T/C: 222%
[12]
  minimal effective dose at 3.2 mg/kg: 0.05 mg/kg

## C#CCOC1=C(C)C(=O)C2=C(C1=O)C(COC(N)=O)[C@@]1(OC)C3NC3CN21 (some centres undefined)
[3]
  logP: 0.74
[13]
  T/C: 204%
[14]
  T/C: 150%
[15]
  minimal effective dose at 0.8 mg/kg: < 0.05 mg/kg

## CO[C@@]12C(COC(N)=O)C3=C(C(=O)C(C)=C(OCCN4CCOCC4)C3=O)N1CC1NC12 (some centres undefined)
[3]
  logP: 0.49
[16]
  T/C: 113%
[4]
  T/C: 256%
[12]
  minimal effective dose at 3.2 mg/kg: < 0.05 mg/kg

## CO[C@@]12C(COC(N)=O)C3=C(C(=O)C(C)=C(OCCN(C)C)C3=O)N1CC1NC12 (some centres undefined)
[3]
  logP: 0.46
[7]
  T/C: 220%
[8]
  minimal effective dose at 1.6 mg/kg: 0.4 mg/kg
[4]
  T/C: 281%
[12]
  minimal effective dose at 3.2 mg/kg: < 0.025 mg/kg

## CO[C@@]12C(COC(N)=O)C3=C(C(=O)C(C)=C(OCC4COC(C)(C)O4)C3=O)N1CC1NC12 (some centres undefined)
[3]
  logP: 0.82
[17]
  T/C: 221%
[18]
  T/C: 240%
[13]
  T/C: 198%
[19]
  T/C: 133% and 147% and 170%
[20]
  minimal effective dose at 0.8 mg/kg: 0.4 mg/kg
[21]
  MED: <0.3 mg/kg and 0.1 mg/kg
[14]
  T/C: 178%
[22]
  minimal effective dose at 0.8 mg/kg: < 0.05 mg/kg

## CCOC1=C(C)C(=O)C2=C(C1=O)C(COC(N)=O)[C@@]1(OC)C3NC3CN21 (some centres undefined)
[3]
  logP: 0.76
[23]
  T/C: 215%
[16]
  T/C: 212%
[24]
  minimal effective dose at 0.2 mg/kg: 0.1 mg/kg
[25]
  minimal effective dose at 0.4 mg/kg: < 0.4 mg/kg
[5]
  T/C: 188%
[6]
  minimal effective dose at 1.6 mg/kg: < 0.05 mg/kg

## CO[C@@]12C(COC(N)=O)C3=C(C(=O)C(C)=C(OCC4CCCO4)C3=O)N1CC1NC12 (some centres undefined)
[3]
  logP: 1.29
[13]; 0.8 mg/kg
  T/C: 212% and 198%
[26]
  T/C: 147%
[19]
  T/C: 133%
[20]
  minimal effective dose at 0.8 mg/kg: 0.2 mg/kg
  MED: 0.2 mg/kg
[14]
  T/C: 239%
[15]
  minimal effective dose at 0.8 mg/kg: < 0.05 mg/kg

## COC1=C(C)C(=O)C2=C(C1=O)[C@@H](COC(N)=O)[C@@]1(OC)[C@H]3N[C@H]3CN21 [MITOMYCIN A]
[3]
  logP: 0.26
[27]
  T/C: 177%
[28]
  minimal effective dose at 0.3 mg/kg: 0.05 mg/kg
[4]
  T/C: 180%
[12]
  minimal effective dose at 3.2 mg/kg: 0.05 mg/kg
